From US20230265116A1, “DEGRADATION OF (EGFR) BY CONJUGATION OF EGFR INHIBITORS WITH E3 LIGASE LIGAND AND METHODS OF USE” (BEIGENE, LTD., priority 2020, published 2023)

How the values were obtained:
[1] = system: EGFR Del19/T790M/C797S (BaF3-DTC cells); experiment: EGFR degradation HTRF assay, BaF3-DTC cells; type: cell-based; conditions: 16h treatment; for DTC Dmax (%): maximum percentage of degradation; for DC50: read-out: DTC DC50
Procedure, shortened: (§1)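 EGFR remaining after a 16 h, 37 °C exposure (8 doses, 5-fold steps from 10 uM final, 0.2% DMSO) was quantified by HTRF antibodies in cell lysate. Percent inhibition relative to DMSO control was fitted by four-parameter logistic to give DC50; Dmax denotes maximal degradation.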

[2] = target: T1, EGFR L858R/T790M/C797S (BaF3-LTC cells) (Homo sapiens, UniProt P00533, C797S/L858R/T790M); experiment: EGFR degradation HTRF assay, BaF3-LTC cells; type: cell-based; conditions: BaF3-LTC, 16h treatment; for Dmax: maximum percentage of degradation, read-out: LTC Dmax (%); for DC50: read-out: LTC DC50
T1 construct: expressed in transfected cells; host or cells: BaF3
Procedure, shortened: as §1

T1 sequence (P00533 25-1210 T790M/C797S/L858R): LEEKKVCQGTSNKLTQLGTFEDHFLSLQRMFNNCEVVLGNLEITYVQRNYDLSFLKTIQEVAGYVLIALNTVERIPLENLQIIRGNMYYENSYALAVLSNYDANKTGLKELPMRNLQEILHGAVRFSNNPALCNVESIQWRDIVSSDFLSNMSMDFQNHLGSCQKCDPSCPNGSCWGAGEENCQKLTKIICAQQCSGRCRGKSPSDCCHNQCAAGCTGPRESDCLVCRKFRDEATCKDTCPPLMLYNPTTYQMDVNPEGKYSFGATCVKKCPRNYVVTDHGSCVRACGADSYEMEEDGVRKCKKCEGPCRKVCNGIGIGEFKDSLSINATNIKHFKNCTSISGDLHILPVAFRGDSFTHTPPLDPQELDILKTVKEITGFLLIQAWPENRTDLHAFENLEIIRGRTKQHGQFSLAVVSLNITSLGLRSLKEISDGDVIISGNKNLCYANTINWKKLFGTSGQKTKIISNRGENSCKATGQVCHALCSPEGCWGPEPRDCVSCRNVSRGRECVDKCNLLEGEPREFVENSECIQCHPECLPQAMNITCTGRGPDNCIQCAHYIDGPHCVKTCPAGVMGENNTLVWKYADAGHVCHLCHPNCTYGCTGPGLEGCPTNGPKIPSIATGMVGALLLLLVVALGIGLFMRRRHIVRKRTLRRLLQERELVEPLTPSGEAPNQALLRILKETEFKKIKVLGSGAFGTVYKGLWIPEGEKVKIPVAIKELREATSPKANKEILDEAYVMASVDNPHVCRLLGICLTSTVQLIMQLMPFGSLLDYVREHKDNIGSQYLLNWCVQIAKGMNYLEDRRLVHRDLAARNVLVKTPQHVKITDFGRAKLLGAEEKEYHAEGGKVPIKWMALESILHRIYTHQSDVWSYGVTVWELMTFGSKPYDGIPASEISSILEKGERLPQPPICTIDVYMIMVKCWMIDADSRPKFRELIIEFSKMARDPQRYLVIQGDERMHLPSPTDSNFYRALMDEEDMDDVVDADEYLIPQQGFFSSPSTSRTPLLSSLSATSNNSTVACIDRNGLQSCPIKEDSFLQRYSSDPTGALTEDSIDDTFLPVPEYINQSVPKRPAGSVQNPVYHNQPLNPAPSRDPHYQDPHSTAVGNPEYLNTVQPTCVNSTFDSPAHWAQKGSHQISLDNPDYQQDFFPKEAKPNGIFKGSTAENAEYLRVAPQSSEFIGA

DC50 [1] [nM]	Dmax [2] [%]	DC50 [2] [nM]	Compound	DTC Dmax (%) [1] [%]
4.29	90.8	9.35	CCc1cc(Nc2ncc(Br)c(Nc3ccc4nc(C)ccc4c3P(C)(C)=O)n2)c(OC)cc1N1CCC(N2CCN(CCN(C)c3cc(F)c(C4CCC(=O)NC4=O)c(F)c3)CC2)CC1 (stereo not drawn) [Example 433, 3-(4-((2-(4-(1-(4-((5-bromo-4-((5-(dimethylphosphoryl)-2-methylquinolin-6-yl)amino)pyrimidin-2-yl)amino)-2-ethyl-5-methoxyphenyl)piperidin-4-yl)piperazin-1-yl)ethyl)(methyl)amino)-2,6-difluorophenyl)piperidine-2,6-dione]	93.56
61.2	75.5	81.4	CCc1cc(Nc2ncc(Br)c(Nc3ccc4nccnc4c3P(C)(C)=O)n2)c(OC)cc1N1CCC(N2CCN(C[C@H]3C[C@H](c4ccc(NC5CCC(=O)NC5=O)cc4)C3)CC2)CC1 (stereo partly drawn) [Example 284, 3-((4-((1r,3r)-3-((4-(1-(4-((5-bromo-4-((5-(dimethylphosphoryl)quinoxalin-6-yl)amino)pyrimidin-2-yl)amino)-2-ethyl-5-methoxyphenyl)piperidin-4-yl)piperazin-1-yl)methyl)cyclobutyl)phenyl)amino)piperidine-2,6-dione]	77.49
15.1	84.2	32.3	CCc1cc(Nc2ncc(Br)c(Nc3ccc4nccnc4c3P(C)(C)=O)n2)c(OC)cc1N1CCC(N2CCN(CCc3ccc(C4CCC(=O)NC4=O)c(F)c3)[C@H](COC)C2)CC1 (stereo partly drawn) [Example 292, 3-(4-(2-((S)-4-(1-(4-((5-bromo-4-((5-(dimethylphosphoryl)quinoxalin-6-yl)amino)pyrimidin-2-yl)amino)-2-ethyl-5-methoxyphenyl)piperidin-4-yl)-2-(methoxymethyl)piperazin-1-yl)ethyl)-2-fluorophenyl)piperidine-2,6-dione]	87.11
1.53	95.3	4.56	CCc1cc(Nc2ncc(Br)c(Nc3ccc4c(=O)n(C)ccc4c3P(C)(C)=O)n2)c(OC)cc1N1CCC(N2CCN(CCc3cccc4c3n(C)c(=O)n4C3CCC(=O)NC3=O)CC2)CC1 (stereo not drawn) [Example 705, 3-(4-(2-(4-(1-(4-((5-bromo-4-((5-(dimethylphosphoryl)-2-methyl-1-oxo-1,2-dihydroisoquinolin-6-yl)amino)pyrimidin-2-yl)amino)-2-ethyl-5-methoxyphenyl)piperidin-4-yl)piperazin-1-yl)ethyl)-3-methyl-2-oxo-2,3-dihydro-1H-benzo[d]imidazol-1-yl)piperidine-2,6-dione]	88.58
4.91	91.4	20.5	COc1cc(N2CCC(N3CCN(CCC4CCN(c5cc(F)c(C6CCC(=O)NC6=O)c(F)c5)CC4)CC3)CC2)c(C)cc1Nc1ncc(Br)c(Nc2ccc3nccnc3c2P(C)(C)=O)n1 (stereo not drawn) [Example 215, 3-(4-(4-(2-(4-(1-(4-((5-bromo-4-((5-(dimethylphosphoryl)quinoxalin-6-yl)amino)pyrimidin-2-yl)amino)-5-methoxy-2-methylphenyl)piperidin-4-yl)piperazin-1-yl)ethyl)piperidin-1-yl)-2,6-difluorophenyl)piperidine-2,6-dione]	96.67
14.9	91.2	28	CCc1cc(Nc2ncc(Br)c(Nc3ccc4nc(C(F)(F)F)ccc4c3P(C)(C)=O)n2)c(OC)cc1N1CCC(N2CCN(CCC3CCN(c4cc(F)c(C5CCC(=O)NC5=O)c(F)c4)CC3)CC2)CC1 (stereo not drawn) [Example 437, 3-(4-(4-(2-(4-(1-(4-((5-bromo-4-((5-(dimethylphosphoryl)-2-(trifluoromethyl)quinolin-6-yl)amino)pyrimidin-2-yl)amino)-2-ethyl-5-methoxyphenyl)piperidin-4-yl)piperazin-1-yl)ethyl)piperidin-1-yl)-2,6-difluorophenyl)piperdine-2,6-dione]	83.88
